According to PubChem BioAssay (NCI):
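How tested: cells in 96-well plates exposed to compound for 48 hours at five concentrations. GI50: concentration for 50% inhibition of growth. TGI is the concentration that stops growth completely.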

Experiments:
Test in all cases: NCI-60 cell line screen, 48 h
NCI-H522 lung = tested on: NCI-H522 lung
EKVX NSCLC = tested on: EKVX NSCLC
NCI-H460 lung = tested on: NCI-H460 lung
RPMI-8226 leukemia = tested on: RPMI-8226 leukemia
KM12 colon = tested on: KM12 colon
UACC-62 melanoma = tested on: UACC-62 melanoma
NCI-H226 lung = tested on: NCI-H226 lung
CCRF-CEM leukemia = tested on: CCRF-CEM leukemia
SK-MEL-5 melanoma = tested on: SK-MEL-5 melanoma
HOP-92 NSCLC = tested on: HOP-92 NSCLC

| Compound | GI50 (NCI-H522 lung) | TGI (NCI-H522 lung) | GI50 (EKVX NSCLC) | TGI (EKVX NSCLC) | GI50 (NCI-H460 lung) | TGI (NCI-H460 lung) | GI50 (RPMI-8226 leukemia) | TGI (RPMI-8226 leukemia) | GI50 (KM12 colon) | TGI (KM12 colon) | GI50 (UACC-62 melanoma) | TGI (UACC-62 melanoma) | GI50 (NCI-H226 lung) | TGI (NCI-H226 lung) | GI50 (CCRF-CEM leukemia) | TGI (CCRF-CEM leukemia) | GI50 (SK-MEL-5 melanoma) | TGI (SK-MEL-5 melanoma) | GI50 (HOP-92 NSCLC) | TGI (HOP-92 NSCLC) |
| --- | --- | --- | --- | --- | --- | --- | --- | --- | --- | --- | --- | --- | --- | --- | --- | --- | --- | --- | --- | --- |
| COc1cc(/C=C2\CC3C4CC=C5CC(N6CCCC6)CC[C@]5(C)C4CC[C@]3(C)C2OC(C)=O)ccc1OCCN1CCCC1 (stereo not given in full) | 1.69 µM | 3.25 µM | 3.41 µM | 13.4 µM | 1.9 µM | 3.92 µM | 1.67 µM | 3.82 µM | 2.27 µM | 5.99 µM | 1.79 µM | 3.45 µM | 3.19 µM | 10.1 µM | 1.95 µM | 4.87 µM | – | – | – | – |
| Cc1ccc2/c(=C/c3ccc(N(C)C)cc3)c3cc(-c4ccccc4)[n+](C)n3c2c1 | 0.0547 µM | > 100 µM | 0.0643 µM | 7.95 µM | 0.025 µM | 1.38 µM | – | – | 0.0209 µM | 0.12 µM | 0.0292 µM | 0.252 µM | – | – | 0.0269 µM | – | 0.0344 µM | 0.169 µM | – | – |
| c1ccc2c(c1)N=C(c1cccc3ccccc13)CC(c1cccc3ccccc13)S2 (stereo not given) | – | 8.44 µM | – | 28.7 µM | – | 19.5 µM | – | 4.85 µM | – | 9.6 µM | – | 19.8 µM | – | 24.6 µM | – | 4.67 µM | – | 22.1 µM | – | – |
| CNc1nc(NC2CCCC2)nc(Sc2ccc(OC)cc2)n1 | > 10 µM | > 10 µM | – | – | > 10 µM | > 10 µM | > 10 µM | > 10 µM | > 10 µM | > 10 µM | > 10 µM | > 10 µM | > 10 µM | > 10 µM | > 10 µM | > 10 µM | > 10 µM | > 10 µM | 1.09 µM | 9.5 µM |
| CC/C=C\C/C=C\C1CC(=O)NCCCNCCCCN1 (stereo not given) | – | > 100 µM | – | > 100 µM | – | > 100 µM | – | – | – | > 100 µM | – | – | – | > 100 µM | – | – | – | > 100 µM | – | > 100 µM |
| O=C1N[C@@H](O)[C@@H]2ON=C(c3ccccc3)[C@H]12 | – | – | – | > 100 µM | – | > 100 µM | – | > 100 µM | – | > 100 µM | – | > 100 µM | – | > 100 µM | – | > 100 µM | – | > 100 µM | – | > 100 µM |
| Cc1sc(C)c(-c2ccc(CO)o2)c1-c1ccc(CO)o1 | 41.9 µM | > 100 µM | – | – | 0.124 µM | > 100 µM | 13.5 µM | > 100 µM | > 83.5 µM | > 100 µM | – | – | 0.124 µM | 0.388 µM | 49.1 µM | > 100 µM | > 61.5 µM | > 100 µM | 7.01 µM | > 100 µM |
| COc1cc(/C=C/C(=N\NC(=O)c2ccccc2)c2sc(Nc3ccc(Cl)c(Cl)c3)nc2C)ccc1O | – | 47.6 µM | – | > 100 µM | – | > 100 µM | – | – | – | > 100 µM | – | 26.1 µM | – | 56 µM | – | > 100 µM | – | – | – | 16.3 µM |
| Clc1ccc(CNc2nc3ccccc3nc2-c2cccs2)c(Cl)c1 | – | – | – | > 100 µM | – | > 100 µM | – | > 100 µM | – | – | – | – | – | > 100 µM | – | > 100 µM | – | – | – | 76.6 µM |
| CC(=O)c1c(C)n([O-])c2cc(C)c(C)cc2[n+]1=O | – | > 100 µM | – | > 100 µM | – | > 100 µM | – | > 100 µM | – | > 100 µM | – | > 100 µM | – | > 100 µM | – | > 100 µM | – | > 100 µM | – | – |
| NC1=NC(=O)C(CC(=O)Nc2ccc([N+](=O)[O-])cc2[N+](=O)[O-])S1 (stereo not given) | – | – | – | > 100 µM | – | > 100 µM | – | > 100 µM | – | > 100 µM | – | > 100 µM | – | > 100 µM | – | > 100 µM | – | > 100 µM | – | 89.4 µM |
| COC(=O)NC/C=C\c1nc(CC/C=C\C(=O)OC2CC3CC(=O)O[C@@H](/C=C/CC(C)C)C[C@@H]4CCC(C)C(C[C@@H](OC)CC(C2)O3)O4)co1 (stereo not given in full) | < 0.01 µM | 87.7 µM | < 0.01 µM | > 100 µM | < 0.01 µM | > 100 µM | – | – | 2.67 µM | > 100 µM | 0.412 µM | 25.6 µM | 24.4 µM | > 100 µM | – | – | < 0.01 µM | 19 µM | < 0.01 µM | 2.38 µM |
| c1cc[c]([Sn]([S]c2cccc3cccnc23)([c]2ccccc2)[c]2ccccc2)cc1 | – | – | 0.0558 µM | 0.37 µM | 0.0143 µM | 0.033 µM | – | – | – | – | 0.0352 µM | 0.162 µM | – | – | 0.0158 µM | 0.0744 µM | 0.042 µM | 0.277 µM | – | – |
| COc1ccc(/C=C/C(=O)c2sc(-n3nc(-c4ccccc4)cc3-c3ccccc3)nc2C)cc1OC | – | 53.9 µM | – | > 100 µM | – | > 100 µM | – | 70 µM | – | > 100 µM | – | 52.2 µM | – | > 100 µM | – | 92.1 µM | – | – | – | – |
| CCN(Cc1c(F)cccc1F)c1ccc(CO)c(Cl)c1 | 15.1 µM | 38.8 µM | – | – | 0.0663 µM | 0.612 µM | 1.1 µM | 41.4 µM | 11.4 µM | 26.8 µM | 0.0517 µM | 0.325 µM | 0.0318 µM | 0.126 µM | 25.7 µM | 98.5 µM | 13.5 µM | 26.7 µM | 0.162 µM | 0.988 µM |
| COc1ccc(C2=NC(C)(C)CO2)cc1 | – | – | – | > 100 µM | – | > 100 µM | – | > 100 µM | – | > 100 µM | – | > 100 µM | – | – | – | > 100 µM | – | > 100 µM | – | > 100 µM |
| CNC(=O)c1ccc(-c2cnc3ncc(Cc4ccc5ncccc5c4)n3n2)cc1F | 38 µM | > 100 µM | – | – | > 100 µM | > 100 µM | > 100 µM | > 100 µM | > 100 µM | > 100 µM | > 100 µM | > 100 µM | 34.6 µM | > 100 µM | > 100 µM | > 100 µM | > 100 µM | > 100 µM | 8.54 µM | 91.5 µM |
| CCCS(=O)(=O)c1nc(NC2CC2)cc(-c2ccc3c(ccn3C3CC(C)(C)NC(C)(C)C3)c2)n1 | – | – | 1.84 µM | 3.71 µM | 1.8 µM | 3.55 µM | 2 µM | 5.27 µM | 1.83 µM | 3.67 µM | – | – | 1.74 µM | 3.71 µM | 2.02 µM | 4.8 µM | 1.72 µM | 3.15 µM | 1.46 µM | 3.08 µM |
| Cc1ccc(C(=O)CC(Sc2cccc(Cl)c2Cl)c2ccc(Cl)cc2)cc1C (stereo not given) | 26.2 µM | 61.9 µM | 21.6 µM | 42.1 µM | 19.1 µM | 42.1 µM | 5.76 µM | 48.2 µM | 15.4 µM | 34.1 µM | 21.2 µM | 57.6 µM | 20.5 µM | 37.4 µM | 18.7 µM | 94.4 µM | 16.6 µM | 33 µM | – | – |
| Oc1c2c(c(O)c3ccccc13)=N[C@@H](c1ccccc1)[C@H](c1ccccc1)N=2 | – | > 100 µM | – | – | – | > 100 µM | – | > 100 µM | – | > 100 µM | – | > 100 µM | – | > 100 µM | – | > 100 µM | – | > 100 µM | – | > 100 µM |
| CN(C)c1nc(-c2cccs2)n2nc(-c3ccc(Cl)cc3)cc2n1 | > 100 µM | > 100 µM | 4.38 µM | > 100 µM | – | – | > 100 µM | > 100 µM | > 100 µM | > 100 µM | 5.92 µM | > 100 µM | 2.73 µM | > 100 µM | > 100 µM | > 100 µM | – | – | – | – |
| CC1=C(C)C(=O)O[C@@H]([C@](C)(O)[C@]2(O)CC[C@@]3(O)[C@@H]4C[C@H]5O[C@]56CC=CC(=O)[C@]6(C)[C@H]4CC[C@]23C)C1 | 0.1 µM | 0.534 µM | – | – | 0.618 µM | 2.4 µM | 0.0593 µM | 1.78 µM | 0.266 µM | 1.57 µM | 0.0996 µM | 1.57 µM | 0.453 µM | 4.49 µM | 0.163 µM | – | 0.269 µM | 1.43 µM | 0.0651 µM | 1.91 µM |
| O=C1c2ccccc2-c2c1c1ccccc1c(=O)n2CCNCCCNCCn1c2c(c3ccccc3c1=O)C(=O)c1ccccc1-2 | 2.91 µM | 14.1 µM | 1.07 µM | 3.07 µM | < 0.005 µM | > 50 µM | 0.00933 µM | 0.259 µM | 0.0193 µM | – | 0.362 µM | 1.16 µM | 0.64 µM | 1.66 µM | < 0.005 µM | 1.43 µM | 1.75 µM | 7.9 µM | – | – |
| CN1CCN(C)C1c1cccc(C2N(C)CCN2C)c1 | – | > 100 µM | – | – | – | > 100 µM | – | > 100 µM | – | > 100 µM | – | > 100 µM | – | > 100 µM | – | > 100 µM | – | – | – | > 100 µM |
| COc1cc(/C=C\c2ccc(O)cc2)cc(OC)c1OC | – | > 22.4 µM | – | > 100 µM | – | > 30 µM | – | 35.3 µM | – | > 100 µM | – | > 29.1 µM | – | > 100 µM | – | > 100 µM | – | 18.6 µM | – | – |
| Nc1ccc(SC23CC4CC(CC(C4)C2)C3)cc1 | – | > 100 µM | – | > 100 µM | – | > 100 µM | – | > 100 µM | – | > 100 µM | – | > 100 µM | – | – | – | > 100 µM | – | > 100 µM | – | – |
| CCOc1cccc2nc3cccc(C(=O)NCCN(C)C)c3nc12 | – | > 100 µM | – | 11.6 µM | – | – | – | 6.46 µM | – | 9.36 µM | – | 3.38 µM | – | 2.08 µM | – | – | – | – | – | – |
